The values below come from ChEMBL document CHEMBL5385856, “Novel 1,4,5,6-tetrahydrocyclopenta[d]imidazole-5-carboxamide-based JNK3 inhibitors: Design, synthesis, molecular docking, and therapeutic potential in neurodegenerative diseases” (Eur J Med Chem, 2023).

Assay [1] deals with T1, Mitogen-activated protein kinase 8 (Homo sapiens, UniProt P45983). The assay can be described thus: Inhibition of JNK1 (unknown origin) at 1 uM relative to control.
The target of assay [2] is T2, Mitogen-activated protein kinase 10 (Homo sapiens, UniProt P53779). The assay can be described thus: Inhibition of JNK3 (unknown origin) using ATF2 as substrate incubated for 40 mins in presence of [gamma33P]ATP by scintillation counting analysis.
T2 sequence (P53779 whole entry): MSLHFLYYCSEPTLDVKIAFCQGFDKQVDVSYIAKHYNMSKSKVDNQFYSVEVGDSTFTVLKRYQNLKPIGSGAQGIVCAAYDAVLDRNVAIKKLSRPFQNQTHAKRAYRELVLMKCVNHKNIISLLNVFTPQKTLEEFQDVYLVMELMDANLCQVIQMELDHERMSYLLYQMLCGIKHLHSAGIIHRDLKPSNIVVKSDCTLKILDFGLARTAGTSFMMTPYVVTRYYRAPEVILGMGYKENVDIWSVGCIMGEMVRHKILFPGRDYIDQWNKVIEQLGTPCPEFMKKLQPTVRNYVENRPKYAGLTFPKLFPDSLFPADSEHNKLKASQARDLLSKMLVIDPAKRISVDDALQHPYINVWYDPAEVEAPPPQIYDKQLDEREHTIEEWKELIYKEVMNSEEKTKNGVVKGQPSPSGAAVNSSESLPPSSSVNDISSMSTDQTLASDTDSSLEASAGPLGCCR
In assay [3] the target is T3, Mitogen-activated protein kinase 9 (Homo sapiens, UniProt P45984). The assay can be described thus: Inhibition of JNK2 (unknown origin) incubated for 20 mins in presence of 33P-ATP.
Target sequence in this assay (P45984 whole entry): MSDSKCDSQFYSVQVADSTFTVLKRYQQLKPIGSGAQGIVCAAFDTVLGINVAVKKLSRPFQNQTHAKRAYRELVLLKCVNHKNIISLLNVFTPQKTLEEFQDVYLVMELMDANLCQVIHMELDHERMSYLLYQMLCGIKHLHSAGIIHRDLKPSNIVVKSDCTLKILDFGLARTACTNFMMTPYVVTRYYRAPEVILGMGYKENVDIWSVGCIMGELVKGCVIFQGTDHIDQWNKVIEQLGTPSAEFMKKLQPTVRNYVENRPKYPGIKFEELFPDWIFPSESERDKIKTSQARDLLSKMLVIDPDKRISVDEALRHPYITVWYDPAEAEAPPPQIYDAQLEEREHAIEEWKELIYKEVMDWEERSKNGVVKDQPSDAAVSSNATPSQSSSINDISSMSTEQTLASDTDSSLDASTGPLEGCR
In assay [4] the target is T1, Mitogen-activated protein kinase 8. The assay can be described thus: Inhibition of JNK1 (unknown origin) incubated for 20 mins in presence of 33P-ATP.
For assay [5], the target named is T4, Mitogen-activated protein kinase 14 (Homo sapiens, UniProt Q16539). As to the kind of experiment: Inhibition of p38alpha (unknown origin) incubated for 20 mins in presence of 33P-ATP.
T4 sequence (Q16539 whole entry): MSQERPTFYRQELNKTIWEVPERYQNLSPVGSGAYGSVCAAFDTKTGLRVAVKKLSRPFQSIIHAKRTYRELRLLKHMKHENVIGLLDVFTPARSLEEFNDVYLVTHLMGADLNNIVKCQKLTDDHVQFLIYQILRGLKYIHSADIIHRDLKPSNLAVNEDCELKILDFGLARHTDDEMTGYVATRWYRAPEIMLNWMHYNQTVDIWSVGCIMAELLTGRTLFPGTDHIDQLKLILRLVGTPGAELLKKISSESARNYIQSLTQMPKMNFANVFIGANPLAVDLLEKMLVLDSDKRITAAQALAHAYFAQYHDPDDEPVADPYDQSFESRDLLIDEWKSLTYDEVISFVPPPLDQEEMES
The target in assay [6] is T2, Mitogen-activated protein kinase 10. As to the kind of experiment: Inhibition of JNK3 (unknown origin) at 1 uM relative to control.
The target of assay [7] is Glycogen synthase kinase-3 beta (Homo sapiens, UniProt P49841). As to the kind of experiment: Inhibition of GSK3beta (unknown origin) incubated for 20 mins in presence of 33P-ATP.
Glycogen synthase kinase-3 beta, sequence (P49841 whole entry): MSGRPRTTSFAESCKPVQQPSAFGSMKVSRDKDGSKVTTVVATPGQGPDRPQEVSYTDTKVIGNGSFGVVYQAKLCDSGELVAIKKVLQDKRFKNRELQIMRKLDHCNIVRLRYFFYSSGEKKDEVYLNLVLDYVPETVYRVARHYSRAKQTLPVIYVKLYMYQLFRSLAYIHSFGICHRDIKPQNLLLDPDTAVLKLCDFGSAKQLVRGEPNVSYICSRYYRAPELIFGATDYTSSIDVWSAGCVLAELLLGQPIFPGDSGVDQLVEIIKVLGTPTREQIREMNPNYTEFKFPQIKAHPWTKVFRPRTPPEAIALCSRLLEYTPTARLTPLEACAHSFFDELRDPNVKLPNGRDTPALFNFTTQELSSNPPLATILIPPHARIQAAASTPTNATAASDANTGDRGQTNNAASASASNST
Assay [8] addresses T3, Mitogen-activated protein kinase 9. The assay can be described thus: Inhibition of JNK2 (unknown origin) at 1 uM relative to control.
Target sequence in this assay (P45984 whole entry, looked up): as the sequence (P45984 whole entry) above
Assay [9] has as its target T4, Mitogen-activated protein kinase 14. As to the kind of experiment: Inhibition of p38alpha (unknown origin) at 1 uM relative to control.
The test system of assay [10] is Cortical neurone. As to the kind of experiment: cells. Particulars: Rattus norvegicus, 120 h, read-out: Activity.
The nature of assay [11]: Selectivity ratio of IC50 for inhibition of p38alpha (unknown origin) to IC50 for inhibition of JNK3 (unknown origin).
The nature of assay [12]: Selectivity ratio of IC50 for inhibition of GSK3beta (unknown origin) to IC50 for inhibition of JNK3 (unknown origin).
The nature of assay [13]: Selectivity ratio of IC50 for inhibition of JNK1 (unknown origin) to IC50 for inhibition of JNK3 (unknown origin).
Assay [14] has as its target Mitogen-activated protein kinase 10 (Rattus norvegicus) (UniProt P49187). As to the kind of experiment: Inhibition of JNK3 in primary rat cortex neuron cells assessed as reduction in Abeta1-42 induced c-Jun phosphorylation by Western blotting analysis. The assay is classed as cell-based. To be noted: Primary cortical neuron. In general terms: Immunoblotting shows a protein as a band on a membrane.

For assay [15] the target is unchanged. The assay can be described thus: Inhibition of JNK3 in primary rat cortex neuron cells assessed as reduction in Abeta1-42 induced APP phosphorylation by Western blotting analysis. The assay is classed as cell-based. To be noted: Primary cortical neuron.
Assay [16] deals with Cortical neurone. The assay can be described thus: Neuroprotective activity against Abeta42-induced neuronal apoptosis in Sprague-Dawley rat primary cortical neuron cells assessed as cell viability at 20 uM preincubated for 90 mins followed by Abeta42 addition for 24 hrs and measured on day 5 by MTT assay (reference value: 52%). The assay is classed as functional. To be noted: 120 h, time 5 day, read-out: Activity.

The inhibition is the share of the control response that was lost under treatment. By IC50 is commonly meant the concentration that gives 50% inhibition.

SMILES strings stand for the structures. Activity calls are given as the source filed them. The calls are words filed in the database; no cut-off is given here.

T1 sequence (P45983 whole entry): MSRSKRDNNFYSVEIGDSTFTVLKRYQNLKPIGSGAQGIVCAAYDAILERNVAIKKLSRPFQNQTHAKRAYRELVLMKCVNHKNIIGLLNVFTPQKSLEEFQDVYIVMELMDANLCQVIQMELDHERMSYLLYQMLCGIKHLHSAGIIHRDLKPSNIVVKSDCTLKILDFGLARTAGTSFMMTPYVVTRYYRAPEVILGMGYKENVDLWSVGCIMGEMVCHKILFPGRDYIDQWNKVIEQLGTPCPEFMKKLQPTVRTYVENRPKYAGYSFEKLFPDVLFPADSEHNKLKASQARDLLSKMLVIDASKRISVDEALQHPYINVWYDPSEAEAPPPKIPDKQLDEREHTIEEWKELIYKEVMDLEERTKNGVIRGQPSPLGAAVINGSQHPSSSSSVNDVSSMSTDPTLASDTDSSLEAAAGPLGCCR
Mitogen-activated protein kinase 10 (Rattus norvegicus), sequence (P49187 whole entry): as the sequence (P53779 whole entry) above, with Q27H, Y32S, I33V, A34V counted along it

As for `NC(=O)C1Cc2nc(-c3ccc(Cl)c(Cl)c3)n(-c3ccnc(N[C@@H]4CCCN(C(=O)C5CC5)C4)n3)c2C1` (some centres undefined), the inhibition in assay [1] stood at 80%; in [6] it was 100%; in assay [8] it was 80%; in assay [9] it was 80%. Also, the IC50 in assay [2] stood at 0.73 nM; in assay [3], 16.6 nM; in assay [4], 160 nM; in assay [5] it was 70.6 nM; in assay [7] it was 470 nM.

Turning to `CCOC(=O)C1Cc2nc(-c3ccc(Cl)c(Cl)c3)n(-c3ccnc(N[C@H]4CCCN(C(=O)C5CC5)C4)n3)c2C1` (some centres undefined), the viability at 10 µM in the assay on Cortical neurone [10] is 63.2%. Moreover, the concentration for half-maximal inhibition (IC50) in [2] is 1.11 nM; in [3], 14.8 nM; in assay [4], 158 nM; in assay [5] it was 285 nM; in [7], 4860 nM.

Take `CNC(=O)C1Cc2nc(-c3ccc4ccccc4c3)n(-c3ccnc(N[C@H]4CCCN(C(=O)C5CC5)C4)n3)c2C1` (some centres undefined): the Ratio IC50 in [11], in assay [12] and in [13] was more than 100 in each case. The inhibition in [1] was 80%; in assay [6], 100%; in assay [8], 80%; in assay [9], 80%. Moreover, the 50% inhibitory concentration (IC50) turned out to be 0.564 nM in assay [2]; 7.56 nM in assay [3]; 14.4 nM in [4]; 751 nM in assay [5]; 1800 nM in assay [7].

Consider `CCOC(=O)C1Cc2nc(-c3ccc4ccccc4c3)n(-c3ccnc(N[C@H]4CCCN(C(=O)C5CC5)C4)n3)c2C1` (some centres undefined), for which the inhibition entry in assay [14] and in assay [15] was “Active” in each case. The viability at 10 µM in the assay with Cortical neurone [10] worked out at 55.7%. The IC50 turned out to be 0.716 nM in assay [2]; 13 nM in assay [3]; 32.5 nM in assay [4]; 291 nM in [5]; 2250 nM in assay [7].

Regarding `Oc1ccc(/C=C/c2cc(O)cc(O)c2)cc1` [RESVERATROL], the viability at 20 µM with Cortical neurone [16] amounted to 84.2%.

Consider `NC(=O)C1Cc2nc(-c3ccc(Cl)c(Cl)c3)n(-c3ccnc(N[C@H]4CCCN(C(=O)C5CC5)C4)n3)c2C1` (some centres undefined), for which the inhibition entry in assay [14] and in [15] was “Active” each time. Also, in the assay on Cortical neurone [10], the viability at 10 µM worked out at 62.9%. The inhibition in [1] worked out at 80%; in assay [6], 100%; in [8] it was 80%; in assay [9] it was 80%. Also, the IC50 worked out at 0.379 nM in [2]; 29.4 nM in [3]; 82.7 nM in assay [4]; 216 nM in assay [5]; 3890 nM in assay [7].

Turning to `CNC(=O)C1Cc2nc(-c3ccc4ccccc4c3)n(-c3ccnc(N[C@@H]4CCCN(C(=O)C5CC5)C4)n3)c2C1` (some centres undefined), the half-inhibitory concentration (IC50) in assay [2] was 1.08 nM; in assay [3] it was 16.3 nM; in assay [4] it was 75.5 nM; in assay [5], 37.5 nM; in [7] it was 1660 nM. Also, the Ratio IC50 in assay [13] amounted to 50.

As for `CNC(=O)C1Cc2nc(-c3ccc(Cl)c(Cl)c3)n(-c3ccnc(N[C@H]4CCCN(C(=O)C5CC5)C4)n3)c2C1` (some centres undefined), the IC50 in [2] was 1.2 nM; in assay [3] it was 15.4 nM; in [4], 86.5 nM; in [5] it was 532 nM; in assay [7], more than 10000 nM. The Ratio IC50 in assay [13] came out at 100.

On to `NC(=O)C1Cc2nc(-c3ccc4ccccc4c3)n(-c3ccnc(N[C@H]4CCCN(C(=O)C5CC5)C4)n3)c2C1` (some centres undefined), for which the inhibition entry in [14] and in [15] was “Active” throughout. Further, the viability at 10 µM in the assay on Cortical neurone [10] worked out at 58.5%. In addition, the half-maximal inhibitory concentration (IC50) in assay [2] was determined as 1.76 nM.
